According to patent US20240316196A1, “METHODS AND COMPOSITIONS FOR DIFFERENTIATION OF PLURIPOTENT STEM CELLS AND DERIVED NATURAL KILLER CELLS” (NUWACELL BIOTECHNOLOGIES CO., LTD., priority 2022, published 2024):

What was measured:
Type in all cases: cell-based
[1] = system: PBNK cells; assay: Expansion of PBNK cells from PBMCs (NK cell expansion fold; CD56+CD3− % by flow cytometry); conditions: heparin sodium 0-50 μg/mL in NKSFM
Experimental: The effect of the concentration of nicotinamide (NAM) in an exemplary basal medium on NK cell expansion was evaluated. The above basal medium comprised the following components: IMDM (Sigma): RPMI1640 (Gibco) (50%: 50%); about 1.3 ng/mL of Cupric sulfate, about 3 μM of Ferric sulfate, about 0.432 μg/mL of Zinc sulfate, about 1-50 ng/mL of Na Selenite, about 110 μg/mL of Sodium pyruvate, 0.1-20 μg/mL of Insulin, 1-200 μg/mL of Transferrin, about 1%(v/v) of GlutaMAX-1, 0.1-20 mg/mL of HSA, 1-400 μM of MTG, about 80 μg/mL of Ascorbic acid and indicated concentration of NAM. Peripheral blood mononuclear cells (PBMCs) were isolated by density gradient centrifugation using Ficoll-Paque. On Day 0, PBMCs were plated at 1×10^6 cells/mL in a 48-well-plate in the basal medium with NAM (either 0, 1, 2, 2.5, 3, 3.5, 4, or 5 mM) and stimulated with the following reagents for 3 days: immobilized CD16 antibody (Biolegend, 302014) (135 ng/cm^2), IL-2 (700 IU/mL), IL-15 (10 ng/mL) and OK432 (0.01 KE/mL). On day 3, cells were re-suspended in the above basal medium supplemented with IL-2 (700 IU/mL) and IL-15 (10 ng/mL). Fresh medium was added every other day to maintain cell density below 2×10^6 cells/mL. Cells were collect on Day 14 and stained with CD56-PE and CD3-PerCP-Cy5.5 antibodies, the percentage of CD56^+CD3^− NK cells was analyzed by flow cytometry.
(§1) The effect of heparin sodium concentration in an exemplary NKSFM on NK cell expansion was also evaluated. NKSFM comprised the following components: IMDM (Sigma): DMEM/F12 (Gibco) (50%: 50%); about 20 μM of Ethanolamine, about 1-50 ng/mL of Na Selenite, about 110 μg/mL of Sodium pyruvate, 0.1-20 μg/mL of Insulin, 1-200 μg/mL of Transferrin, about 1%(v/v) of GlutaMAX-1, 0.1-20 mg/mL of Human serum albumin, 1-400 μM of MTG, about 80 μg/mL of Ascorbic acid, about 1-5 mM of NAM, 4%(v/v) of PLT, and indicated concentration of heparin sodium. PBMCs were isolated by density gradient centrifugation using Ficoll-Paque. On Day 0, PBMCs were plated at 1×10^6 cells/mL in a 48-well-plate in NKSFM with heparin sodium (0, 0.5, 1, 3, 10, 30, or 50 μg/mL) and stimulated with the following reagents for 3 days: immobilized CD16 antibody (Biolegend, 302014) (135 ng/cm^2), OK432 (0.01 KE/mL), NeoIL-2 (50 ng/mL), IL-12 (10 ng/mL), IL-18 (50 ng/mL). […] Cells were collect on Day 13 and stained with CD56-PE and CD3-PerCP-Cy5.5 antibodies, the percentage of CD56^+CD3^− NK cells was analyzed by flow cytometry. The specific lysis of K562 tumor cells by NK cells were assessed by CFSE/7-AAD cytotoxicity assay. […] After incubation for 4 hours, cells were stained with 7-AAD (Live/dead staining) and analyzed with flow cytometry.
The effect of PLT percentage (v/v) in an exemplary NKSFM on NK cell expansion was evaluated. […]

[2] = system: K562 tumor cells; assay: Specific lysis of K562 tumor cells by expanded NK cells (CFSE/7-AAD cytotoxicity assay); conditions: heparin sodium 0-50 μg/mL in NKSFM; E:T 3:1, 4 hours (FIG. 3C)
Experimental: as §1, with “Ficoll-Paque.” for “Ficoll-Paque. On Day 0, PBMCs were plated at 1×10^6 cells/mL in a 48-well-plate in NKSFM with heparin sodium (0, 0.5, 1, 3, 10, 30, or 50 μg/mL) and stimulated with the following reagents for 3 days: immobilized CD16 antibody (Biolegend, 302014) (135 ng/cm^2), OK432 (0.01 KE/mL), NeoIL-2 (50 ng/mL), IL-12 (10 ng/mL), IL-18 (50 ng/mL).”
The effect of PLT percentage (v/v) in an exemplary NKSFM on NK cell expansion was evaluated. […] Cells were collect on Day 14 and stained with CD56-PE and CD3-PerCP-Cy5.5 antibodies, the percentage of CD56^+CD3^− NK cells was analyzed by flow cytometry. The specific lysis of K562 tumor cells by NK cells were assessed by CFSE/7-AAD cytotoxicity assay. […]

[3] = system: K562 cells; assay: Cytotoxicity of Stage 3 iNK cells towards K562 cells (CFSE/7AAD assay); conditions: added to Stage 3 medium (IL-10 20 ng/mL, IL-18 50 ng/mL); 4 hr co-culture, E:T 3:1 (FIG. 13A)
Experimental: hiPSCs were prepared as described in CN108373998B. On Day −1, Embryoid body (EB) formation (Stage 1-1) was carried out by placing individualized hiPSCs in E8 medium containing 10 μM Blebbistatin in T25 flasks on a bellydancer and culture overnight. On Day 0, lateral mesoderm differentiation (Stage 1-2) was initiated by changing the medium to a Stage 1-2 differentiation medium comprising IF-4 basal medium and supplemented with BMP4 (25 ng/mL), VEGF (15 ng/mL), bFGF (0.5 ng/mL) and CHIR99021 (4 μM) for 2 days. On Day 2, lateral mesoderm differentiation (Stage 1-3) continued for 1 day in a Stage 1-3 differentiation medium comprising IF-4 basal medium and supplemented with BMP4 (25 ng/mL), VEGF (50 ng/mL) and bFGF (0.5 ng/mL) and CHIR99021 (1 μM). On Day 3, HE specification (Stage 1-4) was initiated by adding a Stage 1-4 differentiation medium comprising IF-4 basal medium and supplemented with VEGF (15 ng/mL), bFGF (5 ng/mL), XAV939 (5 μM) for 1 day. […] On Day 11 of co-culture, iNK cells were collected and stained with CD56-PE antibody (BD, #555516), the percentage of CD56+ cells was analyzed by flow cytometry. The cytotoxicity of Stage 3 iNK cells towards K562 cells was detected by CFSE/7AAD assay after 4 hr co-culture at E:T of 3:1.

heparin sodium
NK cell expansion fold, effect of concentration ([1]; Day 13 (FIG. 3A)): significantly influences | percentage of CD56^+CD3^− NK cells, effect of concentration ([1]; Day 13 (FIG. 3B)): minimal effect | specific lysis of K562 tumor cells, effect of concentration [2]: minimal effect

IL-10: interleukin added to Stage 3 expansion and maturation medium
cytotoxicity of iNK cells towards K562 cells [3]: significantly improve
